Data as given in article PMC9121888 (Pharmacology Research & Perspectives, 2022).
Where two headings read alike, the source gives them in different places.

What was measured:
Format in all cases: in vivo, human
[1] = Study 1 (NCT03836599) safety: adverse events, laboratory, vital signs, ECG; conditions: Study 1, up to 24 mg verinurad + 300 mg allopurinol
Excerpt: (§1) Cohort 1 was randomized, double‐blind, and placebo‐controlled and consisted of 12 healthy Asian participants, of whom <50% were Chinese. Cohort 2 was open‐label, consisting of 9 healthy Chinese participants.
(§2) Analysis of safety was based on adverse events (AEs), laboratory assessments (including hematology, clinical chemistry, urinalysis, and coagulation), vital signs (systolic and diastolic blood pressure, and pulse rate), electrocardiogram (ECG), and physical examination. AEs were coded using the Medical Dictionary for Regulatory Activities. In Study 1, a treatment‐emergent AE was defined as an AE with onset (start date/time) after the first dose of study drug in the run‐in period (day –7). In Study 2, AEs were recorded from the time the participant signed the informed consent through to the follow‐up visit. ECGs were obtained after the participant rested in the supine position. Digital ECG analysis in Study 1 was performed at the AstraZeneca ECG Center.
(§3) Safety was assessed in the safety analysis set of each study, comprising all participants who received ≥1 dose of study drug. Continuous variables are summarized using descriptive statistics, and categorical variables are summarized as frequency and proportion.

[2] = Study 2 (NCT02608710) safety: adverse events, laboratory, vital signs, ECG
Method: (§4) Study 2 was a Phase 1, randomized, open‐label study comprising of three parts. Parts 1 and 2 assessed the pharmacokinetics and pharmacodynamics of single and multiple doses of verinurad, respectively (Figure 1). Part 3 assessed the effect of food on the pharmacokinetics and pharmacodynamics of verinurad and is not reported further herein. In the single‐dose assessment, […] were randomized 1:1:1:1:1:1 into 1 of 6 treatment sequences with a single dose of 4.5, 6, or 12 mg verinurad, administered on days 1, 5, and 9 (Figure 1). In the multiple‐dose assessment, 8 participants received 12 mg verinurad QD on days 1 to 7.
as §2, §3

[3] = Study 1 plasma pharmacokinetics of verinurad, allopurinol and oxypurinol; conditions: for Tmax: median (range); for Cmax / AUC: geometric mean (gCV%)
Method: as §1
(§5) In both studies, participants received verinurad capsules with an extended‐release profile. On the days of pharmacokinetic sampling, treatment was given in fasting state.
Verinurad plasma samples were analyzed using similar methodologies as described by Shen et al.[13] with lower and upper limits of quantification of 0.100 ng/mL and 40.0 ng/mL, respectively.

[4] = Study 2 plasma pharmacokinetics of verinurad; conditions: healthy non-Asian participants; for Tmax: median (range)
Method: as §4, §5
Verinurad plasma samples were analyzed using similar methodologies as described by Shen et al.[13] with lower and upper limits of quantification of 0.100 ng/mL and 40.0 ng/mL, respectively. The ability to dilute overrange samples was also confirmed. […].
Pharmacokinetics and pharmacodynamics were assessed in all participants who received ≥1 dose of study drug and had ≥1 corresponding assessment.

[5] = multiple-dose assessment, 12 mg verinurad QD (n = 8)
[6] = single-dose assessment, 4.5 mg verinurad (n = 16)
[7] = single-dose assessment, 6 mg verinurad (n = 16)
[8] = single-dose assessment, 12 mg verinurad (n = 16)
[9] = healthy Asian participants, 24 mg verinurad + 300 mg allopurinol QD, Day 7
[10] = healthy Chinese participants, 12 mg verinurad + 300 mg allopurinol day 1 and QD days 3-9, Day 9, arithmetic mean (SD)
[11] = healthy Chinese participants, 12 mg verinurad + 300 mg allopurinol, Day 1, arithmetic mean (SD)
[12] = multiple-dose assessment 12 mg verinurad QD, Day 7, geometric mean (gCV%)
[13] = single dose 6 mg verinurad, geometric mean (gCV%)
[14] = single dose 12 mg verinurad, geometric mean (gCV%)

Q: For CC(C)(Sc1ccncc1-c1ccc(C#N)c2ccccc12)C(=O)O [verinurad], which tolerability [1] is on record?
A: well tolerated

Q: What about the “diarrhea, participants” value ([2]; human, in vivo) of the same compound?
A: 2

Q: What about the “findings in laboratory parameters, vital signs, 12-lead ECG variables” value ([2]; in vivo) of the same compound?
A: No clinically significant findings

Q: What about the “Death, Events” value [2, 5] of the same compound?
A: 0 Events

Q: What about the “Death, n (%)” value [2, 5] of the same compound?
A: 0 n (%)

Q: And the “Death, Events” value [2, 6]?
A: 0 Events

Q: And the “Death, n (%)” value [2, 6]?
A: 0 n (%)

Q: What about the “Death, Events” value [2, 7] of the same compound?
A: 0 Events

Q: And the “Death, n (%)” value [2, 7]?
A: 0 n (%)

Q: And the “Death, Events” value [2, 8]?
A: 0 Events

Q: And the “Death, n (%)” value [2, 8]?
A: 0 n (%)

Q: What about the CL/F ([3]; healthy Asian participants, 24 mg verinurad + 300 mg allopurinol QD, Day 1, arithmetic mean (SD)) of the same compound?
A: 48.6 (11.3) L/h

Q: What about the Tmax ([3]; healthy Asian participants, 24 mg verinurad + 300 mg allopurinol QD, Day 1) of the same compound?
A: 5.00 (4.98–6.02) h

Q: What about the CL/F ([3]; healthy Asian participants, 24 mg verinurad + 300 mg allopurinol QD, Day 7, arithmetic mean (SD)) of the same compound?
A: 50.9 (9.01) L/h

Q: What about the Cmax [3, 9] of the same compound?
A: 73.6 (29.0) ng/mL

Q: And the Tmax [3, 9]?
A: 5.00 (4.00–6.00) h

Q: What about the CL/F [3, 10] of the same compound?
A: 47.9 (17.2) L/h

Q: What about the t½λz [3, 10] of the same compound?
A: 6.27 (0.647) h

Q: And the CL/F [3, 11]?
A: 43.4 (16.2) L/h

Q: What about the t½λz [3, 11] of the same compound?
A: 12.9 (3.08) h

Q: And the Tmax ([3]; healthy Chinese participants, 12 mg verinurad + 300 mg allopurinol, Day 1)?
A: 5.00 (4.00–6.00) h

Q: And the half-life ([3]; human, plasma, oral, healthy Asian participants, 24 mg verinurad + 300 mg allopurinol QD, Day 1, arithmetic mean (SD), read-out: t½λz (converted))?
A: 5.98 h

Q: What about the AUC ([3]; human, plasma, oral, healthy Asian participants, 24 mg verinurad + 300 mg allopurinol QD, Day 1, read-out: AUC) of the same compound?
A: 506 ng·h/mL

Q: What about the AUC ([3]; human, plasma, oral, healthy Asian participants, 24 mg verinurad + 300 mg allopurinol QD, Day 1, read-out: AUCτ) of the same compound?
A: 415 ng·h/mL

Q: What about the Cmax ([3]; human, plasma, oral, healthy Asian participants, 24 mg verinurad + 300 mg allopurinol QD, Day 1, read-out: Cmax) of the same compound?
A: 71.2 ng/mL

Q: What about the AUC ([3]; human, plasma, oral, healthy Asian participants, 24 mg verinurad + 300 mg allopurinol QD, Day 7, read-out: AUCτ) of the same compound?
A: 478 ng·h/mL

Q: And the AUC ([3]; human, plasma, oral, healthy Chinese participants, 12 mg verinurad + 300 mg allopurinol day 1 and QD days 3-9, Day 9, read-out: AUCτ)?
A: 264 ng·h/mL

Q: What about the Cmax ([3]; human, plasma, oral, healthy Chinese participants, 12 mg verinurad + 300 mg allopurinol day 1 and QD days 3-9, Day 9, read-out: Cmax) of the same compound?
A: 42 ng/mL

Q: What about the Tmax ([3]; human, plasma, oral, healthy Chinese participants, 12 mg verinurad + 300 mg allopurinol day 1 and QD days 3-9, Day 9, read-out: tmax) of the same compound?
A: 5.5 h

Q: And the AUC ([3]; human, plasma, oral, healthy Chinese participants, 12 mg verinurad + 300 mg allopurinol, Day 1, read-out: AUC)?
A: 295 ng·h/mL

Q: What about the AUC ([3]; human, plasma, oral, healthy Chinese participants, 12 mg verinurad + 300 mg allopurinol, Day 1, read-out: AUCτ) of the same compound?
A: 226 ng·h/mL

Q: What about the Cmax ([3]; human, plasma, oral, healthy Chinese participants, 12 mg verinurad + 300 mg allopurinol, Day 1, read-out: Cmax) of the same compound?
A: 47.6 ng/mL

Q: And the CL/F ([4]; multiple-dose assessment 12 mg verinurad QD, Day 1, geometric mean (gCV%))?
A: 52.2 (20.2) L/h

Q: And the Tmax ([4]; multiple-dose assessment 12 mg verinurad QD, Day 1)?
A: 5.00 (2.00–6.00) h

Q: And the CL/F [4, 12]?
A: 44.2 (27.3) L/h

Q: And the t½λz [4, 12]?
A: 10.9 (19.1) h

Q: And the CL/F ([4]; single dose 4.5 mg verinurad, geometric mean (gCV%))?
A: 51.8 (27.9) L/h

Q: What about the Tmax ([4]; single dose 4.5 mg verinurad) of the same compound?
A: 4.00 (2.00–6.00) h

Q: And the CL/F [4, 13]?
A: 58.8 (40.5) L/h

Q: What about the Cmax [4, 13] of the same compound?
A: 13.4 (67.6) ng/mL

Q: And the Tmax ([4]; single dose 6 mg verinurad)?
A: 4.00 (2.00–6.05) h

Q: And the CL/F [4, 14]?
A: 58.3 (44.4) L/h

Q: And the t½λz [4, 14]?
A: 12.2 (67.7) h

Q: And the Tmax ([4]; single dose 12 mg verinurad)?
A: 4.00 (2.00–6.00) h
